The source of these data is patent US12053459B2, “CDK2 inhibitors and methods of using the same” (Cedilla Therapeutics, Inc., priority 2021, dated 2024).

In assay [1] the test system is Kuramochi cells. The assay is described as follows: Incucyte cell proliferation assay, Kuramochi cells labeled with mApple-H2B. The format is cell-based. The settings on record: class symbols A-D. On the procedure: Kuramochi cells labeled with mApple-H2B and Kuramochi RB1−/− cells labeled with NucLight green (Sartorius, 4475) were co-plated on 384-well assay-ready plates along with test compounds at varying concentrations. Plates were placed in the IncuCyte® Sartorius and scanned at 0 and 72 hours. IncuCyte® software was used to count the number of fluorescent nuclei in each well. The fold change in cell count from 0 to 72 hours in wells treated with increasing compounds concentrations (10 pts, ½ log dilution, 20 uM top concentration) was normalized to DMSO control wells. The normalized cell counts were fit with dose response curves and a GI50 was calculated.

The subject of assay [2] is Kuramochi cells. The assay can be described thus: BrdU cell proliferation assay (colorimetric ELISA), Kuramochi cells. In kind it is cell-based. The following applies: class symbols A-D. Put shortly: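 Kuramochi cells (2,000/well, with Kuramochi RB^KO cells as a specificity control) were treated with a 4-point, 3-fold dilution series made from 10 mM compound stocks and left for 4 days at 37 °C. Proliferation was measured by 1 h BrdU labelling, then anti-BrdU peroxidase ELISA read at 450 nm. Signals were background-subtracted and normalized to DMSO wells.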

Assay [3] addresses T1, CDK2/Cyclin E1(14-475) (Homo sapiens, UniProt P24941). The assay is described as follows: Caliper LabChip EZ Reader mobility shift assay, inhibition of CDK2/Cyclin E1 activity. In kind it is biochemical. The following applies: class symbols A-D. Put shortly:
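CDK2/Cyclin E1(14-475) pre-incubated 30 min with compound and ATP, then reaction started with 5-FAM-QSPKKG-CONH2; final 2.5 nM enzyme, 100 μM ATP, 1.5 μM peptide, HEPES pH 7.5. Stopped with EDTA after 100 min; substrate/product conversion by capillary electrophoresis mobility shift, IC50 from four-parameter fit.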

In assay [4] the target is T1, CDK2/Cyclin E1(14-475). The assay is described as follows: HotSpot kinase inhibition assay (radiometric, Reaction Biology Corporation). The format is biochemical. The settings on record: 10 μM ATP, class symbols A-D. On the procedure:
Inhibition of a select panel of CDK2/CCNE1 activities in the presence of compounds of the present disclosure was evaluated using the HotSpot™ assay (proprietary to Reaction Biology Corporation). In the assay, activated CDK2/Cyclin E1 catalyzes the transfer of radioactive phosphate to amino acid residues of peptide or protein substrates, which are detected radiometrically. […] Reactions contained 20 mM HEPES pH 7.5, 10 mM MgCl2, 1 mM EGTA, 2 mM DTT, 0.02% Brij35, 0.02 mg/mL BSA, 0.1 mM Na3VO4, 1% DMSO, 1.5 nM CDK2/Cyclin E1(14-475), 10 μM ATP, and 20 μM Histone H1 protein isolated from calf thymus (Sigma).
CDK2/Cyclin E1 […] and Histone H1 were mixed in reaction buffer. To this mixture, was added dose titrations of inhibitor compounds in 100% DMSO by acoustic transfer. The compound mixtures were incubated for 20 minutes, then the kinase reactions were initiated by the addition of a mixture of ATP and ^33P ATP for final concentrations of 10 μM total ATP, 20 μM Histone H1, and 1.5 nM CDK2/Cyclin E1 (14-475). The reactions were carried out for 120 minutes, then spotted on a P81 ion exchange filter paper, and extensively washed with 0.75% phosphoric acid. The resulting radioactive counts were normalized to yield % activity, plotted against compound concentration, and fit to a four-parameter equation to determine the IC50 for each compound.

`CNC(=O)C(NC(=O)C1CN(C(=O)Cc2c[nH]c3cc(Cl)ccc23)CC2CN(C(=O)c3ccc(OC(C)C)c(OC)c3)CC21)[C@H](C)OCc1ccccc1` (single isomer, unassigned) [I-145]: the GI50 in assay [1] (72 h) was in the range of 1 to 10 µM. The IC50 in assay [2] is 0.5 to 5 µM; in assay [3], at most 0.5 µM.

Consider `CNC(=O)[C@@H](NC(=O)C1CN(C(=O)Cc2c[nH]c3cc(Cl)ccc23)CC2CN(C(=O)c3ccc(OC(C)C)c(OC)c3)CC21)[C@H](C)OCc1ccccc1` (single isomer, unassigned) [I-146], for which, in assay [1] (72 h), the GI50 fell in the range of 10 to 20 µM. For the same compound, the IC50 is above 10 µM in assay [2] and at most 0.5 µM in assay [3].

In assay [1] (72 h), `COc1cc(C(=O)N2CC3CN(C(=O)Cc4c[nH]c5cc(Cl)ccc45)CC(C(=O)NCc4ccc(C)nn4)C3C2)ccc1OC(C)C` (single isomer, unassigned) [I-261] registered a GI50 above 20 µM. Besides, the IC50 in assay [3] was above 10 µM.

`COc1cc(C(=O)N2CC3CN(C(=O)Cc4c[nH]c5cc(Cl)ccc45)CC(C(=O)NCc4ccc(C)nn4)C3C2)ccc1OC(C)C` (single isomer, unassigned) [I-262] registered a GI50 in assay [1] (72 hours) above 20 µM. In assay [3], the IC50 was above 10 µM.

`CNC(=O)[C@H](CCCc1ccccc1)NC(=O)C1CN(C(=O)Cc2c[nH]c3cc(Cl)ccc23)CC2CN(C(=O)c3cc(-c4ccccc4)on3)CC21` (some centres unmarked) [I-13]: the figures for the IC50 in assay [2], in assay [3] and in assay [4] were 5 to 10 µM, above 10 µM and above 100 µM, respectively.

For the compound `CNC(=O)[C@H](CCCc1ccccc1)NC(=O)C1CN(C(=O)Cc2c[nH]c3cc(Cl)ccc23)CC2CN(C(=O)c3cc(-c4ccccc4)[nH]n3)CC21` (some centres unmarked) [I-19], the IC50 is 0.5 to 5 µM in assay [2], above 10 µM in assay [3] and at most 1 µM in assay [4].

With `CNC(=O)[C@H](CCCc1ccccc1)NC(=O)C1CN(C(=O)Cc2c[nH]c3cc(Cl)ccc23)CC2CN(C(=O)c3cncc(OC)n3)CC21` (some centres unmarked) [I-42], the IC50 in assay [2] was above 10 µM; in assay [4], above 100 µM.

Regarding `CNC(=O)[C@H](CCCc1ccccc1)NC(=O)C1CN(C(=O)Cc2c[nH]c3cc(Cl)ccc23)CC2CN(C(=O)c3ccccc3)CC21` (some centres unmarked) [I-50], the values for the IC50 in assay [2] and in assay [4] were above 10 µM and 1 to 10 µM, respectively.

Consider `CNC(=O)[C@H](CCCc1ccccc1)NC(=O)C1CN(C(=O)Cc2c[nH]c3cc(Cl)ccc23)CC2CN(C(=O)c3ccc4[nH]nnc4c3)CC21` (some centres unmarked) [I-62], for which the IC50 was above 10 µM in assay [2] and above 100 µM in assay [4].

Turning to `CNC(=O)[C@H](CCCc1ccccc1)NC(=O)C1CN(C(=O)Cc2c[nH]c3cc(Cl)ccc23)CC2CN(C(=O)c3cnc4nccn4c3)CC21` (some centres unmarked) [I-64], the figures for the IC50 in assay [2] and in assay [4] were above 10 µM and 10 to 100 µM, respectively.

`CNC(=O)[C@H](CCCc1ccccc1)NC(=O)C1CN(C(=O)Cc2c[nH]c3cc(Cl)ccc23)CC2CN(C(=O)c3ccc4c(c3)OCCO4)CC21` (some centres unmarked) [I-77]: the half-inhibitory concentration (IC50) in assay [2] was above 10 µM; in assay [4], above 100 µM.

In the case of `CNC(=O)[C@H](CCCc1ccccc1)NC(=O)C1CN(C(=O)Cc2c[nH]c3cc(Cl)ccc23)CC2CN(C(=O)c3cc(C4CC4)on3)CC21` (some centres unmarked) [I-81], the IC50 in assay [2] is above 10 µM; in assay [4] it was 10 to 100 µM.

With `CNC(=O)[C@@H](C)NC(=O)C1CN(C(=O)Cc2c[nH]c3cc(Cl)ccc23)CC2CN(C(=O)c3ccc(OC(C)C)c(OC)c3)CC21` (some centres unmarked) [I-124], the IC50 in assay [2] was above 10 µM; in assay [4] it was above 100 µM.

Regarding `CNC(=O)[C@H](CCCc1ccccc1)NC(=O)C1CN(C(=O)Cc2c[nH]c3cccc(Cl)c23)CC2CN(C(=O)c3ccc(OC(C)C)c(OC)c3)CC21` (some centres unmarked) [I-221], the IC50 in assay [2] is above 10 µM; in assay [4], above 100 µM.

For the compound `CNC(=O)[C@@H](NC(=O)C1CN(C(=O)Cc2c[nH]c3cc(Cl)ccc23)CC2CN(C(=O)c3cc(-c4ccccc4)n[nH]3)CC21)[C@@H](C)OCC1CCCCC1` (some centres unmarked) [I-251], the results for the IC50 in assay [2], in assay [3] and in assay [4] were 5 to 10 µM, above 10 µM and above 100 µM, respectively.
